Assay results as given in patent publication EP4778924A1 (Huons Co., Ltd., priority 2023, dated 2025).
Where a name gives a salt, the structure may show the parent alone.

Target: T1, Proton Pump (H^+,K^+-ATPase) (Sus scrofa, UniProt P19156)
T1 construct: gastric vesicles were isolated from porcine stomachs; from tissue; host or cells: porcine stomach (gastric vesicles)
Test: Inhibitory activity on proton pump (H+,K+-ATPase) activity, porcine gastric vesicles, malachite green readout
Assay type: biochemical
Conditions: porcine gastric vesicles, pH 6.5, 8 mM KCl, 0.2 mM ATP
Protocol: Specifically, gastric vesicles were isolated from porcine stomachs, and the protein content of the vesicles was quantified using a BSA kit (Bio-Rad, 5000205). All reactions were performed in 96-well plates with a reaction volume of […] containing 100 ng of vesicles. 10 mM valinomycin and the test compound were added to reaction buffer (50 mM Tris-HEPES, 5 mM MgCl2, 8 mM KCl, pH 6.5) containing porcine gastric vesicles at various concentrations, and the mixture was incubated at 37°C for 30 minutes. DMSO or test compounds at different concentrations were added after diluting them to a final DMSO concentration of 0.1%. 0.2 mM adenosine triphosphate (ATP) was then added to the reaction buffer and incubated at 37°C for 20 minutes. The reaction was stopped with 0.2% Tween 20, followed by the addition of malachite green (Sigma Aldrich, MAK307) and incubation at room temperature for 30 minutes. The optical density (OD) value was measured at 620 nm using a microplate reader (Spectramax M5e, Molecular devices). The percent (%) inhibition was derived from the OD values of the control group and various concentrations of the test compounds. The IC50 of the test compounds was analyzed using nonlinear regression using the GraphPad Prism8 program using the % inhibition value at each concentration.

T1 sequence (P19156 2-1034 limits assumed): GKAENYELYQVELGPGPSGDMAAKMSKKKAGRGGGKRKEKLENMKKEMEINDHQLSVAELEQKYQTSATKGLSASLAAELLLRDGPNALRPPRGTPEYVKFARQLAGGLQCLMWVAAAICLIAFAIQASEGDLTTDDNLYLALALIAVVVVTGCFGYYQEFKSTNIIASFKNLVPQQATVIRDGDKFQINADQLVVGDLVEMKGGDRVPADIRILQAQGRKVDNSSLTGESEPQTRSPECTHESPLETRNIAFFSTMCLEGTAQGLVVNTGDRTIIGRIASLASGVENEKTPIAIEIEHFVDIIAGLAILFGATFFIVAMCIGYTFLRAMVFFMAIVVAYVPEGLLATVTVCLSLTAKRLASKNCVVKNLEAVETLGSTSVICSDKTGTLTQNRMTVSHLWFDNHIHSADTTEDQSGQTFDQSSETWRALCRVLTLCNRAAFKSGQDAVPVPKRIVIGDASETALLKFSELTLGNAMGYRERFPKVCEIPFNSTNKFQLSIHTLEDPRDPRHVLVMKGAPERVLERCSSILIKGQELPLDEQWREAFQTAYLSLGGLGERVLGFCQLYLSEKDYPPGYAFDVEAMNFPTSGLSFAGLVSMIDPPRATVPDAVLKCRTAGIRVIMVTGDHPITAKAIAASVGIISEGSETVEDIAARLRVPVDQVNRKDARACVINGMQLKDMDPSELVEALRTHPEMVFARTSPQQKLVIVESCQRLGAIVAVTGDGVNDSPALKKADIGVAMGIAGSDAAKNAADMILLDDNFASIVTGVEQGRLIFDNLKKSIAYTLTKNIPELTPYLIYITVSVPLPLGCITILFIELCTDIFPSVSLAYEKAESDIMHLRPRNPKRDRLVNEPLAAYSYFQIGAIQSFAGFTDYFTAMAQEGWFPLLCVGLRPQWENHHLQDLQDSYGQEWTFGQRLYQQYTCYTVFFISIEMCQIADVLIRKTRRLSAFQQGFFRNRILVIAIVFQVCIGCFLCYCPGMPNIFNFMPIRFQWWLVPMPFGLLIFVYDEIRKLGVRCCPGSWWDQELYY
T1 sequence (P18434 whole entry partner): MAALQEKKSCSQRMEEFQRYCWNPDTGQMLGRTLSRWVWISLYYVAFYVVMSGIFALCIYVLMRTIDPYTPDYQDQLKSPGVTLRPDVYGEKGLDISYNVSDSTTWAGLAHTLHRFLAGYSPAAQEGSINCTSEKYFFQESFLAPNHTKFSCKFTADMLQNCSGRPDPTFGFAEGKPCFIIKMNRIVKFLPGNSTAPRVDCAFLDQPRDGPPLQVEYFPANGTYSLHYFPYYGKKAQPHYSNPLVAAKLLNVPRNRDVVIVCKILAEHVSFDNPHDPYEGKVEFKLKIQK

| SMILES | IC50 [µM] |
| --- | --- |
| Cc1cccc(C)c1CNc1cc(N)cn2c(C)c(C)nc12 [Preliminary Example 1, N^8-(2,6-dimethylbenzyl)-2,3-dimethylimidazo[1,2-a]pyridine-6,8-diamine] | 0.05 to 0.1 |
| CCOC(=O)CCC(=O)Nc1cc(NCc2c(C)cccc2C)c2nc(C)c(C)n2c1 [Example 40, ethyl 4-((8-((2,6-dimethylbenzyl)amino)-2,3-dimethylimidazo[1,2-a]pyridin-6-yl)amino)-4-oxobutanoate] | 0.1 to 0.5 |
| COC(=O)CNC(=O)Nc1cc(NCc2c(C)cccc2C)c2nc(C)c(C)n2c1 [Example 46, hydrochloride] | 0.05 to 0.1 |
| Cc1cccc(C)c1CNc1cc(NC(=O)CCC(=O)O)cn2c(C)c(C)nc12 [Example 38, 4-((8-((2,6-dimethylbenzyl)amino)-2,3-dimethylimidazo[1,2-a]pyridin-6-yl)amino)-4-oxobutanoic acid] | > 0.5 |
| Cc1cccc(C)c1CNc1cc(NC(=O)[C@H]2CCCN(C(=O)CO)C2)cn2c(C)c(C)nc12 [Example 120, (S)-N-(8-((2,6-dimethylbenzyl)amino)-2,3-dimethylimidazo[1,2-a]pyridin-6-yl)-1-(2-hydroxyacetyl)piperidine-3-carboxamide] | 0.1 to 0.5 |
| Cc1cc(F)cc(C)c1CNc1cc(NC(=O)[C@H](C)O)cn2c(C)c(C)nc12 [Example 114, (S)-N-(8-((4-fluoro-2,6-dimethylbenzyl)amino)-2,3-dimethylimidazo[1,2-a]pyridin-6-yl)-2-hydroxypropanamide] | 0.1 to 0.5 |
| Cc1cccc(C)c1CNc1cc(NC(=O)C(C)(F)F)cn2c(C)c(C)nc12 [Example 16, N-(8-((2,6-dimethylbenzyl)amino)-2,3-dimethylimidazo[1,2-a]pyridin-6-yl)-2,2-difluoropropanamide] | 0.1 to 0.5 |
| Cc1cc(F)cc(C)c1CNc1cc(NC(=O)N2CCC2)cn2c(C)c(C)nc12 [Example 51, N-(8-((4-fluoro-2,6-dimethylbenzyl)amino)-2,3-dimethylimidazo[1,2-a]pyridin-6-yl)azetidine-1-carboxamide citrate] | < 0.05 |
| Cc1cccc(C)c1CNc1cc(NC(=O)CN)cn2c(C)c(C)nc12.Cl [Example 10, 2-amino-N-(8-((2,6-dimethylbenzyl)amino)-2,3-dimethylimidazo[1,2-a]pyridin-6-yl)acetamide hydrochloride] | < 0.05 |
| Cc1cccc(C)c1CNc1cc(NC(=O)C2CCC2)cn2c(C)c(C)nc12 [Example 5, N-(8-((2,6-dimethylbenzyl)amino)-2,3-dimethylimidazo[1,2-a]pyridin-6-yl)cyclobutanecarboxamide] | 0.1 to 0.5 |
| Cc1cccc(C)c1CNc1cc(NC(=O)[C@@H]2CCNC2)cn2c(C)c(C)nc12 [Example 89, (R)-N-(8-((2,6-dimethylbenzyl)amino)-2,3-dimethylimidazo[1,2-a]pyridin-6-yl)pyrrolidine-3-carboxamide hydrochloride] | 0.05 to 0.1 |
| Cc1cccc(C)c1CNc1cc(NC(=O)C(C)(C)C)cn2c(C)c(C)nc12 [Example 8, N-(8-((2,6-dimethylbenzyl)amino)-2,3-dimethylimidazo[1,2-a]pyridin-6-yl)pivalamide] | > 0.5 |
| Cc1cccc(C)c1CNc1cc(NC(=O)N2CCC(c3ccccc3)CC2)cn2c(C)c(C)nc12 [Example 82, N-(8-((2,6-dimethylbenzyl)amino)-2,3-dimethylimidazo[1,2-a]pyridin-6-yl)-4-phenylpiperidine-1-carboxamide] | 0.1 to 0.5 |
| Cc1cccc(C)c1CNc1cc(NC(=O)[C@H]2CCNC2)cn2c(C)c(C)nc12 [Example 105, (S)-N-(8-((2,6-dimethylbenzyl)amino)-2,3-dimethylimidazo[1,2-a]pyridin-6-yl)pyrrolidine-3-carboxamide hydrochloride] | 0.1 to 0.5 |
| Cc1cccc(C)c1CNc1cc(NC(=O)NCCO)cn2c(C)c(C)nc12 [Example 88, 1-(8-((2,6-dimethylbenzyl)amino)-2,3-dimethylimidazo[1,2-a]pyridin-6-yl)-3-(2-hydroxyethyl)urea citrate] | < 0.05 |
| Cc1cc(F)cc(C)c1CNc1cc(NC(=O)N(C)C)cn2c(C)c(C)nc12 [Example 49, 3-(8-((4-fluoro-2,6-dimethylbenzyl)amino)-2,3-dimethylimidazo[1,2-a]pyridin-6-yl)-1,1-dimethylurea hydrochloride] | < 0.05 |
| Cc1cccc(C)c1CNc1cc(NC(=O)NCCN)cn2c(C)c(C)nc12 [Example 37, 1-(2-aminoethyl)-3-(8-((2,6-dimethylbenzyl)amino)-2,3-dimethylimidazo[1,2-a]pyridin-6-yl)urea hydrochloride] | 0.05 to 0.1 |

| SMILES | IC50 [µM] |
| --- | --- |
| Cc1cccc(C)c1CNc1cc(NC(=O)c2ccccc2)cn2c(C)c(C)nc12 [Example 104, N-(8-((2,6-dimethylbenzyl)amino)-2,3-dimethylimidazo[1,2-a]pyridin-6-yl)benzamide citrate] | 0.1 to 0.5 |
| Cc1cc(F)cc(C)c1CNc1cc(NC(=O)CN)cn2c(C)c(C)nc12.Cl [Example 64, 2-amino-N-(8-((4-fluoro-2,6-dimethylbenzyl)amino)-2,3-dimethylimidazo[1,2-a]pyridin-6-yl)acetamide hydrochloride] | < 0.05 |
| Cc1cccc(C)c1CNc1cc(NC(=O)[C@H]2CCCCN2)cn2c(C)c(C)nc12 [Example 90, (R)-N-(8-((2,6-dimethylbenzyl)amino)-2,3-dimethylimidazo[1,2-a]pyridin-6-yl)piperidine-2-carboxamide hydrochloride] | 0.05 to 0.1 |
| Cc1cccc(C)c1CNc1cc(NC(=O)C2CC(F)C2)cn2c(C)c(C)nc12 (stereo not drawn) [Example 17, N-(8-((2,6-dimethylbenzyl)amino)-2,3-dimethylimidazo[1,2-a]pyridin-6-yl)-3-fluorocyclobutane-1-carboxamide] | 0.1 to 0.5 |
| Cc1cccc(C)c1CNc1cc(NC(=O)[C@H](C)O)cn2c(C)c(C)nc12 [Example 96, (S)-N-(8-((2,6-dimethylbenzyl)amino)-2,3-dimethylimidazo[1,2-a]pyridin-6-yl)-2-hydroxypropanamide citrate] | 0.1 to 0.5 |
| Cc1cc(F)cc(C)c1CNc1cc(NC(=O)[C@@H](C)O)cn2c(C)c(C)nc12 [Example 117, (R)-N-(8-((4-fluoro-2,6-dimethylbenzyl)amino)-2,3-dimethylimidazo[1,2-a]pyridin-6-yl)-2-hydroxypropanamide] | < 0.05 |
| CC(=O)O[C@H](C)C(=O)Nc1cc(NCc2c(C)cc(F)cc2C)c2nc(C)c(C)n2c1 [Example 111, (R)-1-((8-((4-fluoro-2,6-dimethylbenzyl)amino)-2,3-dimethylimidazo[1,2-a]pyridin-6-yl)amino)-1-oxopropan-2-yl acetate] | 0.1 to 0.5 |
| Cc1cccc(C)c1CNc1cc(NC(=O)CCN)cn2c(C)c(C)nc12 [Example 99, 3-amino-N-(8-((2,6-dimethylbenzyl)amino)-2,3-dimethylimidazo[1,2-a]pyridin-6-yl)propanamide hydrochloride] | 0.05 to 0.1 |
| Cc1cc(F)cc(C)c1CNc1cc(NC(=O)[C@@H]2CCN2)cn2c(C)c(C)nc12 [Example 65, (S)-N-(8-((4-fluoro-2,6-dimethylbenzyl)amino)-2,3-dimethylimidazo[1,2-a]pyridin-6-yl)azetidine-2-carboxamide hydrochloride] | 0.05 to 0.1 |
| Cc1cc(F)cc(C)c1CNc1cc(N)cn2c(C)c(C)nc12 [Preliminary Example 2, N^8-(4-fluoro-2,6-dimethylbenzyl)-2,3-dimethylimidazo[1,2-a]pyridine-6,8-diamine hydrochloride] | 0.05 to 0.1 |
| Cc1cccc(C)c1CNc1cc(NC(=O)C[C@@H]2CCCN2)cn2c(C)c(C)nc12 [Example 93, (S)-N-(8-((2,6-dimethylbenzyl)amino)-2,3-dimethylimidazo[1,2-a]pyridin-6-yl)-2-(pyrrolidin-2-yl)acetamide hydrochloride] | < 0.05 |
| CCC(=O)Nc1cc(NCc2c(C)cccc2C)c2nc(C)c(C)n2c1 [Example 13, N-(8-((2,6-dimethylbenzyl)amino)-2,3-dimethylimidazo[1,2-a]pyridin-6-yl)propionamide] | 0.05 to 0.1 |
| CC(=O)NCC(=O)Nc1cc(NCc2c(C)cccc2C)c2nc(C)c(C)n2c1 [Example 52, 2-acetamido-N-(8-((2,6-dimethylbenzyl)amino)-2,3-dimethylimidazo[1,2-a]pyridin-6-yl)acetamide] | 0.1 to 0.5 |
| CCN(C)C(=O)Nc1cc(NCc2c(C)cccc2C)c2nc(C)c(C)n2c1 [Example 32, 3-(8-((2,6-dimethylbenzyl)amino)-2,3-dimethylimidazo[1,2-a]pyridin-6-yl)-1-ethyl-1-methylurea hydrochloride] | 0.05 to 0.1 |
| Cc1cccc(C)c1CNc1cc(NC(=O)c2ncco2)cn2c(C)c(C)nc12 [Example 14, N-(8-((2,6-dimethylbenzyl)amino)-2,3-dimethylimidazo[1,2-a]pyridin-6-yl)oxazole-2-carboxamide] | 0.1 to 0.5 |
| Cc1cccc(C)c1CNc1cc(NC(=O)N2CCC2)cn2c(C)c(C)nc12 [Example 6, N-(8-((2,6-dimethylbenzyl)amino)-2,3-dimethylimidazo[1,2-a]pyridin-6-yl)azetidine-1-carboxamide] | 0.05 to 0.1 |

Same assay, conditions: result in words

| SMILES | inhibitory activity against proton pump activity |
| --- | --- |
| Cc1cccc(C)c1CNc1cc(NC(=O)CN)cn2c(C)c(C)nc12.Cl [Example 10, 2-amino-N-(8-((2,6-dimethylbenzyl)amino)-2,3-dimethylimidazo[1,2-a]pyridin-6-yl)acetamide hydrochloride] | excellent inhibitory properties |
| Cc1cc(F)cc(C)c1CNc1cc(NC(=O)CN)cn2c(C)c(C)nc12.Cl [Example 64, 2-amino-N-(8-((4-fluoro-2,6-dimethylbenzyl)amino)-2,3-dimethylimidazo[1,2-a]pyridin-6-yl)acetamide hydrochloride] | excellent inhibitory properties |
| Cc1cc(F)cc(C)c1CNc1cc(NC(=O)[C@@H](C)O)cn2c(C)c(C)nc12 [Example 117, (R)-N-(8-((4-fluoro-2,6-dimethylbenzyl)amino)-2,3-dimethylimidazo[1,2-a]pyridin-6-yl)-2-hydroxypropanamide] | excellent inhibitory properties |
